Measurements: ChEMBL document CHEMBL1201862, “PubChem BioAssay data set” (2004)
Activity calls are given as the source filed them.

Assays:
[1] = target: FAD-linked sulfhydryl oxidase ALR (Homo sapiens, UniProt P55789); experiment: inhibitors of human ALR sulfhydryl oxidase, dose response, biochemical, H2O2 detection, luminescence, cherry-pick (AID 493248)
[2] = system: MDCK; experiment: antiviral activity against H1N1 influenza, dose response, cell-based, strain KY136 (AID 540257); assay type: functional; settings: Canis lupus familiaris
[3] = system: Streptococcus; experiment: Group A Streptococcus viability loss, dose response, counter-screen for streptokinase expression inhibitor project, luminescence, BacTiterGlo (AID 1915); assay type: functional, organism-based;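 also: potency for reduction of bacterial viability or growth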
[4] = target: T1, Streptokinase A (Streptococcus pyogenes serotype M1, UniProt P10520); experiment: S. pyogenes streptokinase expression inhibitors, potency, dose response, plasminogen activation absorbance, OD405 (AID 1914); assay type: functional, Streptococcus pyogenes M1 GAS;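 also: secreted streptokinase activity via plasminogen activation per viability signal from cell pellet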
T1 sequence (P10520 whole entry): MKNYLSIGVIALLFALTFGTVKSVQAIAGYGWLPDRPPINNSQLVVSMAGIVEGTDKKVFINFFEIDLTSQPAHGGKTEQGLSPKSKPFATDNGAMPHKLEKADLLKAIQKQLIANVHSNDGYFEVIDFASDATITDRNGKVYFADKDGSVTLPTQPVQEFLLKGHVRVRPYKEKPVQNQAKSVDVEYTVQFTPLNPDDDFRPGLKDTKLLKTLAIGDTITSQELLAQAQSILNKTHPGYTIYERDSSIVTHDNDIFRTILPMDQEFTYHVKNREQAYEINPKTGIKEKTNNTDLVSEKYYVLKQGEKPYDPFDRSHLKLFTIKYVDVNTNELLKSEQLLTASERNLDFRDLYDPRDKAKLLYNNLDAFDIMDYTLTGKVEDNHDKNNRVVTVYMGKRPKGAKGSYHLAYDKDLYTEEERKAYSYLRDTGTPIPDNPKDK

[5] = target: T2, Alkaline phosphatase, tissue-nonspecific isozyme (Homo sapiens, UniProt P05186); experiment: TNAP enzyme activators, dose response, selectivity assay for human IAP activator project, biochemical, TNAP isozyme, human IAP uHTS hits (AID 488886); assay type: functional;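 also: potency of compounds raising TNAP activity as a selectivity check on IAP activators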
T2 sequence (P05186 whole entry): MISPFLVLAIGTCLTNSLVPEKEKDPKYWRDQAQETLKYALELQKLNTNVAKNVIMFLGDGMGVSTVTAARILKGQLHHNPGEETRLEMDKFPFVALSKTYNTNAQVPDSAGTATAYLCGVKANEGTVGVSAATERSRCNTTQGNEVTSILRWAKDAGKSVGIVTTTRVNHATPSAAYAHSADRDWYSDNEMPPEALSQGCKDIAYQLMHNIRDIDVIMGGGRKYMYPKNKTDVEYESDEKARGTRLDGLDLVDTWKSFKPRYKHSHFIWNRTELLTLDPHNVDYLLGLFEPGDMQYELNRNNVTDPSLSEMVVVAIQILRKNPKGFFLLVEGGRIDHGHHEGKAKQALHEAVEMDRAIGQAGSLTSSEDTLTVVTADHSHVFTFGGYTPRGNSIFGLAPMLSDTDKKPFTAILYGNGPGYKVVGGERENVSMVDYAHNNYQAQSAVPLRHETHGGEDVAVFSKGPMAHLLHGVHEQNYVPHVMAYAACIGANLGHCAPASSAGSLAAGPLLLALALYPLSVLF

[6] = target: Intestinal-type alkaline phosphatase (Mus musculus, UniProt P24822); experiment: PubChem AID 488875; assay type: functional
[7] = system: Streptococcus sp. 'group A'; experiment: growth inhibition of control SK(-) GAS strain, dose response, counter-screen for streptokinase expression inhibitor project, luminescence, kanamycin, BacTiterGlo, confirmation (AID 1900); assay type: functional, organism-based
[8] = target: T3, Intestinal-type alkaline phosphatase (Homo sapiens, UniProt P09923); experiment: human IAP activators, dose response, biochemical, luminescent, uHTS hits, set 2 (AID 488817); assay type: functional;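 also: potency of activators that raise enzyme activity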
[9] = target: T4, High affinity choline transporter 1 (Homo sapiens, UniProt Q9GZV3); experiment: CHT inhibitors, dose response, cell-based, 5-point CRC, membrane potential dye (AID 504840); assay type: functional
T4 sequence (Q9GZV3 whole entry): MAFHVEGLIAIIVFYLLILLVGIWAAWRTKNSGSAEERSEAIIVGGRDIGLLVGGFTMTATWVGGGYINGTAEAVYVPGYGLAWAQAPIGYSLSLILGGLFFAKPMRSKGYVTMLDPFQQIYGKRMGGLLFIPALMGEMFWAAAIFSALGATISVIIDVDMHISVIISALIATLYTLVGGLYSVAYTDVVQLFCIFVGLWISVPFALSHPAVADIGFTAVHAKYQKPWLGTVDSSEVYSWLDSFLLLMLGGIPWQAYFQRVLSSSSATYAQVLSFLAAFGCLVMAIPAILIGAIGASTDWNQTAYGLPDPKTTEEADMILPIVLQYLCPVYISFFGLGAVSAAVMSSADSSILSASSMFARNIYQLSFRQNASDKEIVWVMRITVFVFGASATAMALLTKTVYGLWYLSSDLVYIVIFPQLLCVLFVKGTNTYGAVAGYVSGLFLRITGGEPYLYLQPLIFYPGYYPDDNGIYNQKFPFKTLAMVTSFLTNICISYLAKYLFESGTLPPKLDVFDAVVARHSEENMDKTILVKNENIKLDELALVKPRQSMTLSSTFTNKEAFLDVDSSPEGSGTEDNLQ

[10] = target: T3, Intestinal-type alkaline phosphatase; experiment: human intestinal alkaline phosphatase activators, dose response, biochemical, luminescence, uHTS hits (AID 463120); assay type: functional
[11] = target: Keap1/Nrf2 (Homo sapiens, UniProt Q14145); experiment: Keap1-Nrf2 protein-protein interaction inhibitors, dose response, biochemical, fluorescence polarization, cherry-picked samples (AID 588683)
[12] = target: T5, Corticotropin-releasing factor receptor 2/Corticotropin-releasing factor-binding protein (Homo sapiens, UniProt P24387+Q13324); experiment: activators of CRF receptor 2 with binding protein – uHTS hits, confirmation (AID 602473); assay type: functional; settings: read-out: EC50_Mean
T5 sequence (Q13324 whole entry): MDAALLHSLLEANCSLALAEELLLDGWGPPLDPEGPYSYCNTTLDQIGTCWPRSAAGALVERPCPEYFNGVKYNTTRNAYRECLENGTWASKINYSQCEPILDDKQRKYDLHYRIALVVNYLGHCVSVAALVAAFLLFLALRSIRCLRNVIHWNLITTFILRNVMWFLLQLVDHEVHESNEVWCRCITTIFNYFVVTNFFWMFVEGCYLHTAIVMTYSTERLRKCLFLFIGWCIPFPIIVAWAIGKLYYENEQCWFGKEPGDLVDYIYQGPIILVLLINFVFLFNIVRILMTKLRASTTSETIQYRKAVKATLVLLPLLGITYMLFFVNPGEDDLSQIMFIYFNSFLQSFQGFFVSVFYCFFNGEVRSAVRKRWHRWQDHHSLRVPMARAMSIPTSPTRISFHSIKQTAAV
T5 sequence (P24387 whole entry): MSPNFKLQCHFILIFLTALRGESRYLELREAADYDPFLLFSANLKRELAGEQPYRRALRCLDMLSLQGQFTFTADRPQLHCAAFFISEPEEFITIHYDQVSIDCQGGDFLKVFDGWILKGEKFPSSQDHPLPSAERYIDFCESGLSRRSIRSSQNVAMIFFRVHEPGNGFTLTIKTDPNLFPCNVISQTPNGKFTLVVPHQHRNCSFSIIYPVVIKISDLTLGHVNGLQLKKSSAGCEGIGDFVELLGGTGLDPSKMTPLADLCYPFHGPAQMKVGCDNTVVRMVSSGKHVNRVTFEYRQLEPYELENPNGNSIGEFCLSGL

[13] = target: UDP-galactopyranose mutase (Mycobacterium tuberculosis, UniProt P9WIQ1); experiment: Inhibitors of Mycobacterium tuberculosis UDP-galactopyranose mutase (UGM) enzyme Measured in Biochemical System Using Plate Reader - 2105-02_Inhibitor_Dose_CherryPick_Activity. [Related pubchem assays (depositor defined):AID504439]
[14] = system: Candida albicans; experiment: growth inhibition of resistant C. albicans, dose response, CaCi-8, fluconazole, Alamar Blue, dry powder (AID 488807); assay type: functional, organism-based
[15] = target: T6, Tyrosine-protein phosphatase non-receptor type 7 (Homo sapiens, UniProt P35236); experiment: redox-dependent HePTP inhibition, mechanism study, biochemical, fluorescence (AID 2068); assay type: functional
T6 sequence (P35236 whole entry): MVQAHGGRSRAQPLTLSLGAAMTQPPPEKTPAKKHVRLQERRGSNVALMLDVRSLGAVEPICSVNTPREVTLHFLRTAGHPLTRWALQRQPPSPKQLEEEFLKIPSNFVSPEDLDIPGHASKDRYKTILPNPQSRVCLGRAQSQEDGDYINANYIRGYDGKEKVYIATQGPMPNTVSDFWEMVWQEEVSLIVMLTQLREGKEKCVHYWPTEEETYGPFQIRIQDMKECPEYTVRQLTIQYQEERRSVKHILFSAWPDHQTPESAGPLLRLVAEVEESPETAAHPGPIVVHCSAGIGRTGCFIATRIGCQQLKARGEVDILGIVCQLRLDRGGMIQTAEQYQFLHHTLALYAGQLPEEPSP

[16] = HEp-2 cell cytotoxicity, dose response, cytotoxicity control for RSV inhibitor project, HTS (AID 2410); assay type: functional; settings: human respiratory syncytial virus
[17] = target: Dual specificity protein phosphatase 6 (Rattus norvegicus, UniProt Q64346); assay type: functional;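 also: confirmatory in vitro dose-response testing of MKP-3 inhibition; recombinant His-tagged MKP-3 made in E. coli BL21 with OMFP substrate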
[18] = target: Dual specificity protein phosphatase 3 (Homo sapiens, UniProt P51452); experiment: SAR VHR1 Fluorescent Assay for In Vitro dose response studies Set 2. [Related pubchem assays (depositor defined):AID1654, AID1661, AID1878]; assay type: functional
[19] = growth induction of Burl-1 ts yeast mutant, dose response, counter-screen for SUMOylation pathway inhibitor project, whole organism, S. cerevisiae, luminescence (AID 463199); assay type: functional
[20] = cytotoxicity in HMLE control line with eGFP shRNA, dose response, counter-screen for HMLE_sh_ECad selective toxicity project, cell-based, HMLE_sh_eGFP, luminescence (AID 463074); assay type: functional, Homo sapiens;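 also: HMLE human mammary epithelial cells expressing control shRNA against eGFP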
[21] = Luminescence Cell-Based Dose Retest to Confirm Inhibitors of Cancer Stem Cells. [Related pubchem assays (depositor defined):AID2717, AID2721]; assay type: functional; settings: Homo sapiens

T3 sequence (P09923 whole entry): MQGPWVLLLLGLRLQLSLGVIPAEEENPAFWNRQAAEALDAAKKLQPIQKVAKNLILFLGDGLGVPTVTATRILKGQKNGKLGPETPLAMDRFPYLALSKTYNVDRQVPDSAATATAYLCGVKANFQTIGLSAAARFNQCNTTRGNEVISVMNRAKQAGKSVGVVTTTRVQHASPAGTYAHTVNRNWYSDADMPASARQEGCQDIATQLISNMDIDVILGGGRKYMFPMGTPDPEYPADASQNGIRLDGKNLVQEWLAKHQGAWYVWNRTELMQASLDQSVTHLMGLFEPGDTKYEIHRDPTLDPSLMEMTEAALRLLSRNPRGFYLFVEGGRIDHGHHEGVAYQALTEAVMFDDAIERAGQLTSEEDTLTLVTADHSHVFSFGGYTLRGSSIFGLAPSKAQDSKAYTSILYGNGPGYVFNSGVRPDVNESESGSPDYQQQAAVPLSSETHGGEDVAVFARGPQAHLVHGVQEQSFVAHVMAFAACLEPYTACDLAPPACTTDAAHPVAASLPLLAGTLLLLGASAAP
Intestinal-type alkaline phosphatase (Mus musculus, UniProt P24822), sequence (P24822 whole entry): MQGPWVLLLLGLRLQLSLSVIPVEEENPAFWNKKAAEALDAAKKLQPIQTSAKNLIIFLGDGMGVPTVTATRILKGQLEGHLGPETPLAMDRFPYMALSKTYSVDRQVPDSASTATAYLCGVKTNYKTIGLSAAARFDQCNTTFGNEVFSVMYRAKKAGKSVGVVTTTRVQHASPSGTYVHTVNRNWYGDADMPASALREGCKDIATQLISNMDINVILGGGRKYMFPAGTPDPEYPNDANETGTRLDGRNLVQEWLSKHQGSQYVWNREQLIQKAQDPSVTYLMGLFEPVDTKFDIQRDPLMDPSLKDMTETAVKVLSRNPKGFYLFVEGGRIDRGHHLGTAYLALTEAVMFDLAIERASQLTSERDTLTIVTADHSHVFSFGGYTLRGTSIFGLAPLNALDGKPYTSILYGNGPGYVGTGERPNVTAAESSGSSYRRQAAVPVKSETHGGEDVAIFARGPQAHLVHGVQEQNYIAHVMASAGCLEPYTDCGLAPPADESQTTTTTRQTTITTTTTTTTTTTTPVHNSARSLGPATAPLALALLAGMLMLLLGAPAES
Keap1/Nrf2, sequence (Q16236 whole entry): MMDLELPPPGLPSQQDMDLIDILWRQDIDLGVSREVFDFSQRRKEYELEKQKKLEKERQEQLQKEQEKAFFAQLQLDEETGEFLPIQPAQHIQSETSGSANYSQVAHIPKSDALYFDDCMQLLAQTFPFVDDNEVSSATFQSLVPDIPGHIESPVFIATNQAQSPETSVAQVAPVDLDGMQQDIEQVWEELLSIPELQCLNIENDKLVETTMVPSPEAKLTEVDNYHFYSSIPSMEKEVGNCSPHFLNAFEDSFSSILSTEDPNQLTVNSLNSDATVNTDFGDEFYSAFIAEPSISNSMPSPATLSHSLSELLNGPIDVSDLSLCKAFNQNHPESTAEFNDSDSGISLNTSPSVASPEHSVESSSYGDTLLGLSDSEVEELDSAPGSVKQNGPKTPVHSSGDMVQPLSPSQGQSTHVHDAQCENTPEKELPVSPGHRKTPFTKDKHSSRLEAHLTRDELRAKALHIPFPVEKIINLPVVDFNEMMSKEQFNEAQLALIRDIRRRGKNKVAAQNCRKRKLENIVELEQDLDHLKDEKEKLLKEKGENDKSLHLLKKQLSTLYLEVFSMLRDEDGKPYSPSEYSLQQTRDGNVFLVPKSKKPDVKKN
Keap1/Nrf2, sequence (Q14145 whole entry): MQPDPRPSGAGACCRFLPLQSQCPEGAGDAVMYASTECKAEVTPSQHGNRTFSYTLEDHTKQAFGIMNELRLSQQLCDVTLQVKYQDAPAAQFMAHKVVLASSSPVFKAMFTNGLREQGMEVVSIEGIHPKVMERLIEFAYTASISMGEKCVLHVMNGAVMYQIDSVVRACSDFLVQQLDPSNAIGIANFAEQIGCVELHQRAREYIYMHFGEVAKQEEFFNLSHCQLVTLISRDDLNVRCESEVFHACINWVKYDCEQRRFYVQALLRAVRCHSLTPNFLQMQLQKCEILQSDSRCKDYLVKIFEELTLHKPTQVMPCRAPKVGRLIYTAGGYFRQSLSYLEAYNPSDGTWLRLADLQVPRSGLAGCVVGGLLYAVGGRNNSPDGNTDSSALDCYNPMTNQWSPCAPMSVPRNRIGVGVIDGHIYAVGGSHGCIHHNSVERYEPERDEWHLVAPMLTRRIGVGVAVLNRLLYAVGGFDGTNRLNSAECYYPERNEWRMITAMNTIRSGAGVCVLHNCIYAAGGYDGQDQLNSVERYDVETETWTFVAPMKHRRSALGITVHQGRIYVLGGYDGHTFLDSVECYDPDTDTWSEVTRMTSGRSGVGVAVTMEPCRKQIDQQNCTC
UDP-galactopyranose mutase, sequence (P9WIQ1 whole entry): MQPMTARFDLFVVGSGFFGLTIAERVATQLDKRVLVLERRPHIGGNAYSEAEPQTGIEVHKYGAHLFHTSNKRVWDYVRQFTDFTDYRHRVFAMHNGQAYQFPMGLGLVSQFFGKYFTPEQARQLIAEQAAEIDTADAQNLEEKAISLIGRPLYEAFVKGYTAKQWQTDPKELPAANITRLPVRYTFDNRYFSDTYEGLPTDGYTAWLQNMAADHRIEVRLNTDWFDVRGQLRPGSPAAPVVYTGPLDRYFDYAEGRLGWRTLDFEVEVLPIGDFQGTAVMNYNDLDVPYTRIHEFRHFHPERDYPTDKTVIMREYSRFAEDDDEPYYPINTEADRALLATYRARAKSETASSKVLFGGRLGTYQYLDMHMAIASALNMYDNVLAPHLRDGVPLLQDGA
FAD-linked sulfhydryl oxidase ALR, sequence (P55789 whole entry): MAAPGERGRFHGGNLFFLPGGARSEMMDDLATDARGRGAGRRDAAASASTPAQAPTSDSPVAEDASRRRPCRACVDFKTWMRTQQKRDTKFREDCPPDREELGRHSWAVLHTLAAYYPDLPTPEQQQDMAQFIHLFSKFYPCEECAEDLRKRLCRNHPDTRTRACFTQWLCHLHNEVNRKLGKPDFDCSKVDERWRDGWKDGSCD
Dual specificity protein phosphatase 6, sequence (Q64346 whole entry): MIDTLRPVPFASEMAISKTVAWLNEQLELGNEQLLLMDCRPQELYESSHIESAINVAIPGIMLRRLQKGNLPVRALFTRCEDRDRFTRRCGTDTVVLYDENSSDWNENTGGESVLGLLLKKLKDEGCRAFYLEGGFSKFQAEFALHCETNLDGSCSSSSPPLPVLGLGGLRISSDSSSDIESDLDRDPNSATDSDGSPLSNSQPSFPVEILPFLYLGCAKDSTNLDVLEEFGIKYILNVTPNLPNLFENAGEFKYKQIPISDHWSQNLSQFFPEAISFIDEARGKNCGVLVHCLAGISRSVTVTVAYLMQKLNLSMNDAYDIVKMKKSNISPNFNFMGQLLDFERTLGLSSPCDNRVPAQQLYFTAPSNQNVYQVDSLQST
Dual specificity protein phosphatase 3, sequence (P51452 whole entry): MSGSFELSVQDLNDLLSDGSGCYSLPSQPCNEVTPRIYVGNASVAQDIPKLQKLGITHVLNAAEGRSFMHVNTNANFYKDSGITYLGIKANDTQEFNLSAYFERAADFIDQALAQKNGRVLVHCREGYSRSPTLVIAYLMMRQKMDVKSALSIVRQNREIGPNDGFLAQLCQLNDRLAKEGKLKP

Cc1ccc(N2C(=O)C(CC(=O)Nc3cccc(F)c3)N(C3CC3)C2=O)cc1 (centres undefined)
AC50 [1]: < 0.014 µM (active) | IC50 [2]: 52.3 µM (active)

Cc1cccc(CC(Cc2nc3ccccc3[nH]2)c2nc3ccccc3[nH]2)c1 (centres undefined)
EC50 [3]: 26.7 µM (active) | EC50 [4]: > 150 µM (not active) | EC50 [5]: 62.1 µM (active) | EC50 [6]: 28.9 µM (active) | EC50 [7]: 9.33 µM (active) | EC50 [8]: 47.7 µM (active) | IC50 [9]: 12.6 µM (active) | EC50 [10]: 29.8 µM (active)

CN1/C(=C\C=C(C#N)C#N)C(C)(C)c2ccccc21
AC50 [11]: 28.7 µM (active) | EC50 [12]: 10.8 µM (active) | AC50 [13]: 114 µM (active)

O=C(Cn1c2ccccc2c2nc3n(c(=O)c21)CCS3)N1CCCC1
AC50 [14]: 2.91 µM (active)

NS(=O)(=O)c1cc(C(=O)Nc2ccc3c(c2)CCC3)ccc1Cl
IC50 [15]: > 100 µM (inactive) | CC50 [16]: 39 µM (active) | IC50 [17]: > 100 µM (inactive) | IC50 [18]: > 100 µM (inactive)

CC(C)CCn1c(=O)c2ccccc2c2ccccc2c1=O
AC50 [19]: 58.1 µM (active)

Cc1ccc(N(C)S(=O)(=O)c2cccc(C(=O)Nc3nc4ccccc4[nH]3)c2)cc1
EC50 [3]: 17.4 µM (active) | EC50 [4]: > 150 µM (not active) | AC50 [20]: 32.2 µM (active) | AC50 [21]: 4.1 µM (active) | EC50 [7]: 1.71 µM (active)
